The data set is described as follows: Clinical DDI cohort: midazolam with pomotrelvir 1050 mg b.i.d.
Where [1] appears, read: midazolam + pomotrelvir 1050 mg twice daily, Day 6.
Setting [2] is: midazolam + pomotrelvir 1050 mg twice daily, Day 11.
Where [3] appears, read: 1 mg midazolam alone, Day 1, N = 8.

From publication PMC10583239 (CPT: Pharmacometrics & Systems Pharmacology, 2023) come the findings set out here.

`Cc1ncc2n1-c1ccc(Cl)cc1C(c1ccccc1F)=NC2` [Midazolam, midazolam, reference compound]: where the note is “Day 6 vs Day 1”, the “AUCinf geometric mean ratio (MDZ + POMO)/(MDZ)” value (“AUCinf geometric mean ratio” below) is reported as 1.48, the “AUClast geometric mean ratio (MDZ + POMO)/(MDZ)” value (“AUClast geometric mean ratio” for short) is 1.51 and the “Cmax geometric mean ratio (MDZ + POMO)/(MDZ)” value (shortened to “Cmax geometric mean ratio”) is 1.09. Also, where the note is “Day 11 vs Day 1”, the “AUCinf geometric mean ratio” value worked out at 1.33, the “AUClast geometric mean ratio” value stood at 1.36 and the “Cmax geometric mean ratio” value was determined as 1.09. In addition, the peak concentration (Cmax) (usually the maximum level reached in the sampled fluid or tissue) (both, human, plasma, oral, 1 mg) amounted to 4.06 ng/mL. Further, the Cmax geometric mean under setting [1] amounted to 4.44 ng/mL. For the same molecule, the Cmax geometric mean under setting [2] is 4.44 ng/mL.

Under setting [3], `OCc1ncc2n1-c1ccc(Cl)cc1C(c1ccccc1F)=NC2` [1‐OH‐midazolam, 1‐hydroxy‐midazolam] had an AUCinf geometric mean of 4.76 ng·h/mL, an AUClast geometric mean of 4.72 ng·h/mL and a Cmax geometric mean of 1.36 ng/mL. For the setting “Day 6 vs Day 1”, the “AUCinf geometric mean ratio” value came out at 0.65, the “AUClast geometric mean ratio” value was 0.62 and the “Cmax geometric mean ratio” value was determined as 0.53. Under “Day 11 vs Day 1”, the “AUCinf geometric mean ratio” value is listed as 0.56, the “AUClast geometric mean ratio” value is 0.56 and the “Cmax geometric mean ratio” value came to 0.58. Moreover, under setting [1], the AUCinf geometric mean stood at 3.09 ng·h/mL, the AUClast geometric mean was 2.87 ng·h/mL and the Cmax geometric mean is 0.73 ng/mL. Besides, under setting [2], the AUCinf geometric mean was found to be 2.66 ng·h/mL, the AUClast geometric mean was 2.64 ng·h/mL and the Cmax geometric mean worked out at 0.8 ng/mL.
